# Experiments:
# Type in all cases: cell-based, human
# OR10H1 = assay: Stable lentiviral shRNA knock-down of OR10H1 in M579-A2
# [1] = tested on: SW480 colorectal cancer cells; assay: Chromium release assay, lysis of SW480 by HLA-matched TILs; conditions: SW480, 50:1 E:T ratio, 4 h co-culture
# Method: (§1) Furthermore, it was tested whether OR10H1 knock-down also has an effect in other cancers. […] SW480 (ATCC) and PANC-1 cells were analyzed for their expression of OR10H1 (see above) and the knock-down efficacy of the siRNAs were validated. The CRC cell line SW480 and the PANC-1 cell line were each co-cultured with corresponding HLA-matched TILs for chromium release (4 h co-culture). OR10H1 siRNA 1 almost tripled the lysis of SW480 by TILs in all effector to target ratios compared to the negative control siRNA (33% to 12.8% specific lysis at 50:1 E:T ratio; FIG. 1E). Indeed, knock-down of OR10H1 was almost as effective as knock-down of PD-L1 positive control on TIL-mediated lysis (FIG. 1E). Such effect was also surprising to see in pancreatic cancer cells: knock-down of OR10H1 (siRNA 1) doubled the lysis of PANC-1 by TILs in all effector to target ratios compared to the negative control siRNA (53% to 26% specific lysis at 50:1 E:T ratio; FIG. 1F).
# (§2) The effects of siRNA knock-down on TIL-mediated killing and lysis in a chromium release assay were investigated as described in Khandelwal et al, 2015 (EMBO Mol Med 7:450-63). Tumor-infiltrating lymphocytes 412 and 209 microcultures were expanded from an inguinal lymph node of a melanoma patient as described in Dudley et al, 2010 (Clin Cancer Res 16:6122-31). […]
# TIL412 = assay: Luminex cytokine secretion of TIL412 after co-culture with M579-A2; conditions: 20 h co-culture
# OR10H1 mRNA = assay: RT-PCR of OR10H1 mRNA after siRNA transfection; conditions: M579-A2 cells, 72 h after transfection
# Method: SMART pool siRNA against OR10H1 (GE Dharmacon) were tested (by RT-PCR) for their activity in downregulating OR10H1 mRNA in M579 (melanoma) cells. […] Details of the respective siRNAs are set out in Table E1.
# M579-A2-luc cells [2] = assay: Luc-CTL cytotoxicity assay, TIL412-mediated killing of M579-A2-luc
# Description: It was surprising to find that all siRNAs show an impact on TIL412-mediated killing of M579-A2-luc at 5:1 Effector to Target cell (E:T) ratio (FIG. 1B). Transfection of M579-A2-luc cells with OR10H1 siRNA 1 increased HLA-matched patient-derived tumor-infiltrating lymphocyte (TIL, clone 412)-mediated killing to 70% (30% remaining melanoma cells compared to a scrambled negative control siRNA; p=<0.0001). This increase in TIL-mediated lysis is stronger than for PD-L1 positive control knock-down (39% remaining cells).
# (§3) The effects of siRNA knock-down on TIL-mediated killing and lysis in a chromium release assay were investigated as described in Khandelwal et al, 2015 (EMBO Mol Med 7:450-63). Tumor-infiltrating lymphocytes 412 and 209 microcultures were expanded from an inguinal lymph node of a melanoma patient as described in Dudley et al, 2010 (Clin Cancer Res 16:6122-31). M615, TIL615 and other patient-derived TIL cells were obtained analogously as described in Dudley et al, 2010. M579-A2-luc cells and M615-luc cells were produced from M579-A2 and M615, respectively (Machlenkin et al, 2008; Cancer Res 68:2006-13).
# M579-A2 cells = assay: Chromium release assay, lysis of M579-A2 by TIL209; conditions: TIL209, 12.5 E:T ratio, 4 h co-culture
# Method: TIL-mediated lysis of M579-A2 was validated in chromium release assay (4 h co-culture). […] Indeed, this effect of OR10H1 knock-down was stronger than the PD-L1 positive control knock-down (41% specific lysis at 12.5 E:T ratio; FIG. 1C).
# as §3
# [3] = tested on: PANC-1 pancreatic adenocarcinoma cells; assay: Chromium release assay, lysis of PANC-1 by HLA-matched TILs; conditions: PANC-1, 50:1 E:T ratio, 4 h co-culture
# Method: as §1, §2
# M579-A2-luc cells [4] = tested on: M579-A2-luc cells
substance,measurement,setting,value
"OR10H1 shRNA 4: shRNA against OR10H1, TCTGCTGAAGGTCGGAACAAG, Sigma Aldrich TRCN0000357708, SEQ ID No. 31 (the letters are possibly those of the target site; listed as Homo sapiens)",impact on OR10H1 expression and functionality,OR10H1,strongest impact
"OR10H1 siRNA 1: siRNA against OR10H1, GGAGACACCUUGAUGGGCA, GE Dharmacon D-020479-01, SEQ ID No. 24 (listed as RNA, chemistry not given here; listed as Homo sapiens)",specific lysis,[1],33%
same,decrease of IL-6 secretion,TIL412,37%
same,decrease of MCP-1 secretion,TIL412,39%
same,increase of IFN-gamma secretion compared to negative control,TIL412,8%
same,increase of IL-2 secretion,TIL412,58%
same,IFN-gamma secretion,TIL412; supernatant,3037 pg/mL
same,IL-2 secretion,TIL412; supernatant,1701 pg/mL
same,IL-4 secretion,TIL412; supernatant,11.8 pg/mL
same,IL-6 secretion,TIL412; supernatant,31 pg/mL
same,MCP-1 secretion,TIL412; supernatant,4035 pg/mL
same,decrease of IL-4 secretion,TIL412; trend,20%
same,knock-down of OR10H1 mRNA (RT-PCR),OR10H1 mRNA,complete absence
same,TIL-mediated killing,"M579-A2-luc cells [2]; TIL412, 5:1 E:T ratio",70%
same,remaining melanoma cells compared to scrambled negative control siRNA,"M579-A2-luc cells [2]; TIL412, 5:1 E:T ratio",30%
same,specific lysis,M579-A2 cells,57%
same,specific lysis,[3],53%
"OR10H1 siRNA 2: siRNA against OR10H1, AGUAAACUCUACCCAGAAA, GE Dharmacon D-020479-02, SEQ ID No. 25 (listed as RNA, chemistry not given here; listed as Homo sapiens)",knock-down of OR10H1 mRNA (RT-PCR),OR10H1 mRNA,weaker but clear reduction
"OR10H1 siRNA 3: siRNA against OR10H1, GCAGAGAGCCAAUCACUCC, GE Dharmacon D-020479-03, SEQ ID No. 26 (listed as RNA, chemistry not given here; listed as Homo sapiens)",knock-down of OR10H1 mRNA (RT-PCR),OR10H1 mRNA,strong reduction
same,effect on M579-A2-luc viability,M579-A2-luc cells [2]; without the presence of TILs,shows an effect
"OR10H1 siRNA 4: siRNA against OR10H1, GGUCGUGCACUAUGGCUUU, GE Dharmacon D-020479-04, SEQ ID No. 27 (listed as RNA, chemistry not given here; listed as Homo sapiens)",knock-down of OR10H1 mRNA (RT-PCR),OR10H1 mRNA,weaker but clear reduction
cholera toxin,TIL-mediated lysis,M579-A2-luc cells [4],around 30%
same,effect on OR10H1 knockdown-mediated increase in TIL-mediated tumor lysis,M579-A2-luc cells [4],abrogated
same,effect on TIL-mediated tumor lysis in OR10H1 siRNA transfected (OR10H1-negative) M579-A2-luc,M579-A2-luc cells [4],dramatically decreases
same,effect on TIL-mediated tumor lysis in control siRNA transfected M579-A2-luc,M579-A2-luc cells [4],slight decrease
pertussis toxin,effect on TIL-mediated tumor lysis in OR10H1 siRNA transfected (OR10H1-negative) M579-A2-luc,M579-A2-luc cells [4],not observed
same,effect on TIL-mediated tumor lysis in control siRNA transfected M579-A2-luc,M579-A2-luc cells [4],slightly decreased

# Reference: patent US20200024347A1, “OR10H1 ANTIGEN BINDING PROTEINS AND USES THEREOF” (iOmx Therapeutics AG, priority 2016, published 2020)
